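Compound exposure: 48 hours, 5 concentrations, 96-well plates. Definition used: TGI = concentration required for complete inhibition of growth.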
Experiments:
Test in all cases: NCI anticancer screen, dose series, 48 h
[1] = test system: SW-620 colon
[2] = test system: HCC-2998 colon
[3] = test system: LOX IMVI melanoma
[4] = test system: IGROV1 ovarian
[5] = test system: UACC-257 melanoma
[6] = test system: ACHN renal
[7] = test system: HCT-116 colon
[8] = test system: OVCAR-3 ovarian
[9] = test system: NCI-H23 lung
[10] = test system: A549 NSCLC
[11] = test system: SK-MEL-5 melanoma
[12] = test system: HOP-92 NSCLC
[13] = test system: MCF7 breast
[14] = test system: HS 578T breast
[15] = test system: DU-145 prostate
[16] = test system: PC-3 prostate
[17] = test system: T-47D breast

Work on Cn1c2cc(O)cc(O)c2c(=O)c2c([N+](=O)[O-])cccc21 yielded a TGI [1] of over 100 µM, a TGI [2] of over 100 µM and a TGI [3] of over 100 µM. For the same compound, the TGI [4] was over 100 µM, the TGI [5] was over 100 µM and the TGI [6] was over 100 µM. It also gave a TGI [7] of over 100 µM, a TGI [8] of over 100 µM and a TGI [9] of over 100 µM. The TGI [10] was over 100 µM, the TGI [11] was over 100 µM and the TGI [12] was over 100 µM.

Work on COc1cc(O)c2c(=O)cc(C3(O)C=CC(=O)C=C3)oc2c1 yielded a TGI [1] of 0.0663 µM, a TGI [2] of 1.12 µM and a TGI [3] of 0.464 µM. It also gave a TGI [4] of 0.0328 µM, a TGI [5] of 1.05 µM and a TGI [6] of 0.22 µM. For the same compound, the TGI [13] was 0.58 µM, the TGI [9] was 2.46 µM and the TGI [14] was 8.38 µM. For the same compound, the TGI [15] was 3.18 µM, the TGI [16] was 1.37 µM and the TGI [11] was 0.234 µM. The TGI [12] was 0.493 µM.

Work on Cn1ncnc1CCc1ccccc1 yielded a TGI [1] of over 100 µM, a TGI [3] of over 100 µM and a TGI [4] of over 100 µM. It also gave a TGI [5] of over 100 µM, a TGI [6] of over 100 µM and a TGI [7] of over 100 µM. For the same compound, the TGI [8] was over 100 µM, the TGI [9] was over 100 µM and the TGI [10] was over 100 µM. The TGI [11] was over 100 µM and the TGI [12] was over 100 µM.

Work on COc1ccc(C2SC(C)C(=O)N2c2nc(-c3nc(-c4ccc(Cl)cc4)cs3)cs2)cc1 (stereo not given) yielded a TGI [17] of over 100 µM, a TGI [1] of over 100 µM and a TGI [2] of over 100 µM. For the same compound, the TGI [3] was over 100 µM, the TGI [4] was over 100 µM and the TGI [5] was over 100 µM. It also gave a TGI [6] of over 100 µM, a TGI [7] of over 100 µM and a TGI [8] of over 100 µM. It also gave a TGI [13] of over 100 µM, a TGI [9] of over 100 µM and a TGI [14] of over 100 µM. For the same compound, the TGI [10] was over 100 µM, the TGI [16] was over 100 µM and the TGI [11] was over 100 µM. For the same compound, the TGI [12] was over 100 µM.

With C=CC[C@@H]1C(=O)[C@@]2(O[Si](C(C)C)(C(C)C)C(C)C)CC[C@@H]1C[C@H]2NC(=O)OCC(Cl)(Cl)Cl the TGI [17] was over 100 µM, the TGI [1] was over 100 µM and the TGI [2] was over 100 µM. For the same compound, the TGI [3] was over 100 µM, the TGI [5] was over 100 µM and the TGI [6] was over 100 µM. The TGI [7] was over 100 µM, the TGI [8] was over 100 µM and the TGI [9] was over 100 µM. It also gave a TGI [14] of over 100 µM, a TGI [10] of over 100 µM and a TGI [15] of over 100 µM. For the same compound, the TGI [16] was over 100 µM and the TGI [11] was over 100 µM.

O=C=NCCCCCCN1C(=O)N2C(c3ccccc3)N(CCCCCCN=C=O)C(=O)N2C1c1ccccc1 (stereo not given) was tested, and the TGI [1] was over 100 µM, the TGI [2] was over 100 µM and the TGI [3] was over 100 µM. The TGI [4] was over 100 µM, the TGI [5] was over 100 µM and the TGI [6] was over 100 µM. It also gave a TGI [7] of over 100 µM, a TGI [8] of over 100 µM and a TGI [13] of over 100 µM. The TGI [9] was over 100 µM, the TGI [10] was over 100 µM and the TGI [15] was over 100 µM. For the same compound, the TGI [16] was over 100 µM, the TGI [11] was over 100 µM and the TGI [12] was over 100 µM.

Compound CC(C)C(/C=C/c1ccc(Br)cc1)=N\NC(N)=O has a TGI [1] of over 100 µM, a TGI [2] of 25.7 µM and a TGI [3] of over 100 µM. For the same compound, the TGI [4] was over 100 µM, the TGI [5] was over 100 µM and the TGI [6] was over 100 µM. For the same compound, the TGI [7] was over 100 µM, the TGI [9] was over 100 µM and the TGI [10] was over 100 µM. It also gave a TGI [11] of over 100 µM and a TGI [12] of over 100 µM.

In the case of O=c1cc(-c2ccccc2)oc2cc(OCCSCCCCCCCCCCSCCOc3ccc4c(=O)cc(-c5ccccc5)oc4c3)ccc12, the TGI [1] is reported as over 100 µM, the TGI [2] is reported as over 100 µM and the TGI [3] is reported as over 100 µM. It also gave a TGI [4] of over 100 µM, a TGI [5] of over 100 µM and a TGI [6] of over 100 µM. The TGI [7] was over 100 µM, the TGI [8] was over 100 µM and the TGI [9] was over 100 µM. The TGI [10] was over 100 µM, the TGI [11] was over 100 µM and the TGI [12] was over 100 µM.

In the case of C=C1CN(Cc2ccccc2)[C@@H]2CCCCC[C@H](C#N)[C@H]12, the TGI [17] is reported as over 100 µM, the TGI [1] is reported as over 100 µM and the TGI [2] is reported as over 100 µM. For the same compound, the TGI [3] was over 100 µM, the TGI [4] was over 100 µM and the TGI [5] was over 100 µM. For the same compound, the TGI [6] was over 100 µM, the TGI [7] was over 100 µM and the TGI [8] was over 100 µM. The TGI [13] was over 100 µM, the TGI [9] was over 100 µM and the TGI [10] was over 100 µM. The TGI [15] was over 100 µM, the TGI [16] was over 100 µM and the TGI [11] was over 100 µM. The TGI [12] was over 93 µM.

Work on CC(=O)Nc1ccc(C(=O)NN2C(=O)C(Cl)C2c2ccccc2O)cc1 (stereo not given) yielded a TGI [1] of over 100 µM, a TGI [3] of 48.9 µM and a TGI [4] of over 100 µM. For the same compound, the TGI [5] was over 100 µM, the TGI [6] was over 100 µM and the TGI [7] was over 100 µM. For the same compound, the TGI [8] was 90.3 µM, the TGI [9] was 78.3 µM and the TGI [10] was over 100 µM. For the same compound, the TGI [11] was over 100 µM and the TGI [12] was over 100 µM.

In the case of O=c1[nH]n(Cc2ccccn2)c2ccc([N+](=O)[O-])cc12, the TGI [1] is reported as over 100 µM, the TGI [2] is reported as over 100 µM and the TGI [3] is reported as over 100 µM. It also gave a TGI [4] of over 100 µM, a TGI [5] of over 100 µM and a TGI [6] of over 100 µM. For the same compound, the TGI [7] was over 100 µM, the TGI [8] was over 100 µM and the TGI [9] was over 100 µM. It also gave a TGI [14] of over 100 µM, a TGI [10] of over 100 µM and a TGI [15] of over 100 µM. For the same compound, the TGI [16] was over 100 µM, the TGI [11] was over 100 µM and the TGI [12] was over 100 µM.

CCOC(=O)/C=C1\c2ccccc2C(=O)N1CC(=O)OCC was tested, and the TGI [17] was over 100 µM, the TGI [1] was over 100 µM and the TGI [3] was over 100 µM. It also gave a TGI [4] of over 100 µM, a TGI [5] of over 100 µM and a TGI [6] of over 100 µM. The TGI [7] was over 100 µM, the TGI [8] was over 100 µM and the TGI [9] was over 100 µM. The TGI [14] was over 100 µM, the TGI [10] was over 100 µM and the TGI [15] was over 100 µM. It also gave a TGI [16] of over 100 µM, a TGI [11] of over 100 µM and a TGI [12] of over 100 µM.

In the case of COc1ccc([C@@]23OC[C@@H]4[C@@H](OC[C@@H]42)c2cc(OC)c(OC)cc23)cc1OC, the TGI [17] is reported as over 100 µM, the TGI [1] is reported as over 100 µM and the TGI [2] is reported as over 100 µM. For the same compound, the TGI [3] was over 100 µM, the TGI [4] was over 100 µM and the TGI [6] was over 100 µM. For the same compound, the TGI [7] was over 100 µM, the TGI [8] was over 100 µM and the TGI [13] was over 100 µM. The TGI [9] was over 100 µM, the TGI [10] was over 100 µM and the TGI [15] was over 100 µM. For the same compound, the TGI [16] was over 100 µM and the TGI [11] was over 100 µM.

In the case of O=C(c1ccc(Br)cc1)n1c2ccc(Br)cc2c2nc3ccccc3nc21, the TGI [17] is reported as over 100 µM, the TGI [1] is reported as over 100 µM and the TGI [2] is reported as over 100 µM. The TGI [3] was over 100 µM, the TGI [4] was over 100 µM and the TGI [5] was over 100 µM. The TGI [6] was over 100 µM, the TGI [7] was over 100 µM and the TGI [8] was over 100 µM. The TGI [13] was over 100 µM, the TGI [9] was over 100 µM and the TGI [15] was over 100 µM. The TGI [16] was over 100 µM, the TGI [11] was over 100 µM and the TGI [12] was over 100 µM.

For Cc1ccc(S(=O)(=O)NC(=O)Nc2ccc(S(N)(=O)=O)cc2S(N)(=O)=O)cc1, the TGI [1] was over 100 µM, the TGI [3] was over 100 µM and the TGI [4] was over 100 µM. For the same compound, the TGI [5] was over 100 µM, the TGI [7] was over 100 µM and the TGI [8] was over 100 µM. It also gave a TGI [13] of over 100 µM, a TGI [9] of over 100 µM and a TGI [14] of over 100 µM. It also gave a TGI [10] of over 100 µM, a TGI [15] of over 100 µM and a TGI [16] of over 100 µM. For the same compound, the TGI [11] was over 100 µM and the TGI [12] was over 100 µM.

Compound CCOC(=O)C1=C(C)N(NC(N)=O)C2(O)CCCC(=O)C12C (stereo not given) has a TGI [1] of over 100 µM, a TGI [2] of over 100 µM and a TGI [3] of over 100 µM. The TGI [4] was over 100 µM, the TGI [5] was over 100 µM and the TGI [6] was over 100 µM. It also gave a TGI [8] of over 100 µM, a TGI [9] of over 100 µM and a TGI [10] of over 100 µM. For the same compound, the TGI [11] was over 100 µM and the TGI [12] was over 100 µM.
